The numbers were not newly measured in patent US20240315993A1, “ANTIPARASITIC COMPOUNDS” (Intervet Inc., priority 2021, published 2024), which cites them from elsewhere.

The subject of data set [1] is Yellow Fever Mosquito (Aedes aegypti). As to conditions: Aedes aegypti larvae about 1 day old, 96-well plate, scored after 3 days; cited from earlier work.
The test system of data set [2] is Cabbage Looper (Trichoplusia ni). As to conditions: Cabbage Looper second instar larvae, 128-well diet tray, 50 μg/cm^2, five to seven days, average of eight wells; cited from earlier work.
In data set [3] the test system is Beet Armyworm (Spodoptera exigua). As to conditions: Beet Armyworm second instar larvae, 128-well diet tray, 50 μg/cm^2, five to seven days, average of eight wells; cited from earlier work.

As for `Cc1cc(N)ccc1NC(=O)c1cc(NC(=O)C2C(c3cc(Cl)cc(Cl)c3)C2(Cl)Cl)ccc1Cl` (stereo not drawn) [c59], in data set [1], the “Test C: Bioassay on Yellow Fever Mosquito, mortality rating” value (shortened to “Test C: Bioassay”) is “A (80-100)”. For the same molecule, the “Test B: Bioassay on CL, percent mortality rating” value (“Test B … percent mortality rating” below) in data set [2] is on record as “A (50-100)”. In addition, the “Test A: Bioassay on BAW, percent mortality rating” value in data set [3] was “A (50-100)”.
Consider `O=C1Cc2cc(NC(=O)c3cc(NC(=O)C4C(c5cc(Cl)cc(Cl)c5)C4(Cl)Cl)ccc3Cl)ccc2N1` (stereo not drawn) [c60], for which, in data set [1], the “Test C: Bioassay” value was “A (80-100)”. Further, the “Test B … percent mortality rating” value in data set [2] is on record as “A (50-100)”. Moreover, in data set [3], the “Test A: Bioassay on BAW, percent mortality rating” value is recorded as “A (50-100)”.
Turning to `O=C(Nc1cc2cc[nH]c2cn1)c1cc(NC(=O)C2C(c3cc(Cl)cc(Cl)c3)C2(Cl)Cl)ccc1Cl` (stereo not drawn) [c61], the “Test C: Bioassay” value in data set [1] was “A (80-100)”. For the same molecule, the “Test B … percent mortality rating” value in data set [2] is listed as “A (50-100)”. Further, the “Test A: Bioassay on BAW, percent mortality rating” value in data set [3] was “A (50-100)”.
`O=C(Nc1ccc2nccn2c1)c1cc(NC(=O)C2C(c3cc(Cl)cc(Cl)c3)C2(Cl)Cl)ccc1Cl` (stereo not drawn) [c62]: the “Test C: Bioassay” value in data set [1] is “A (80-100)”. In addition, the “Test B … percent mortality rating” value in data set [2] is listed as “A (50-100)”. Further, in data set [3], the “Test A: Bioassay on BAW, percent mortality rating” value is given as “A (50-100)”.
Take `Cn1ncc2cc(NC(=O)c3cc(NC(=O)C4C(c5cc(Cl)cc(Cl)c5)C4(Cl)Cl)ccc3Cl)cnc21` (stereo not drawn) [c63]: the “Test C: Bioassay” value in data set [1] is recorded as “A (80-100)”. The “Test B … percent mortality rating” value in data set [2] was “A (50-100)”. The “Test A: Bioassay on BAW, percent mortality rating” value in data set [3] is on record as “A (50-100)”.
Consider `Cc1ccc2c(NC(=O)c3cc(NC(=O)C4C(c5cc(Cl)cc(Cl)c5)C4(Cl)Cl)ccc3Cl)n[nH]c2c1` (stereo not drawn) [c64], for which the “Test C: Bioassay” value in data set [1] is reported as “A (80-100)”. The “Test B … percent mortality rating” value in data set [2] was “A (50-100)”. In addition, the “Test A: Bioassay on BAW, percent mortality rating” value in data set [3] was “A (50-100)”.
Consider `Cc1cc(N2C(=O)C=CC2=O)ccc1NC(=O)c1cc(NC(=O)C2C(c3cc(Cl)cc(Cl)c3)C2(Cl)Cl)ccc1Cl` (stereo not drawn) [c65], for which the “Test C: Bioassay” value in data set [1] is “A (80-100)”. In addition, the “Test B … percent mortality rating” value in data set [2] was “A (50-100)”. The “Test A: Bioassay on BAW, percent mortality rating” value in data set [3] is on record as “A (50-100)”.
In the case of `O=C(Nc1cnc2[nH]ccc2c1)c1cc(NC(=O)C2C(c3cc(Cl)cc(Cl)c3)C2(Cl)Cl)ccc1Cl` (stereo not drawn) [c66], in data set [1], the “Test C: Bioassay” value is reported as “A (80-100)”. Besides, in data set [2], the “Test B … percent mortality rating” value is “A (50-100)”. In addition, the “Test A: Bioassay on BAW, percent mortality rating” value in data set [3] is “A (50-100)”.
On to `CCOC(=O)c1cc2cc(NC(=O)c3cc(NC(=O)C4C(c5cc(Cl)cc(Cl)c5)C4(Cl)Cl)ccc3Cl)ccc2[nH]1` (stereo not drawn) [c67], for which the “Test C: Bioassay” value in data set [1] is reported as “A (80-100)”. For the same molecule, the “Test B … percent mortality rating” value in data set [2] is reported as “A (50-100)”. Also, the “Test A: Bioassay on BAW, percent mortality rating” value in data set [3] is “A (50-100)”.
For the molecule `CC(C)(C)OC(=O)n1ccc2cc(NC(=O)c3cc(NC(=O)C4C(c5cc(Cl)cc(Cl)c5)C4(Cl)Cl)ccc3Cl)ccc21` (stereo not drawn) [c68], in data set [1], the “Test C: Bioassay” value is “D (No activity noticed in this bioassay)”. Further, in data set [2], the “Test B … percent mortality rating” value is listed as “A (50-100)”. Also, the “Test A: Bioassay on BAW, percent mortality rating” value in data set [3] is recorded as “A (50-100)”.
Consider `Cc1c(NC(=O)c2cc(NC(=O)C3C(c4cc(Cl)cc(Cl)c4)C3(Cl)Cl)ccc2Cl)ccc2[nH]ccc12` (stereo not drawn) [c69], for which the “Test C: Bioassay” value in data set [1] is listed as “A (80-100)”. Also, the “Test B … percent mortality rating” value in data set [2] was “A (50-100)”. Also, the “Test A: Bioassay on BAW, percent mortality rating” value in data set [3] is “A (50-100)”.
For the molecule `CC(C)(C)c1cc2cc(NC(=O)c3cc(NC(=O)C4C(c5cc(Cl)cc(Cl)c5)C4(Cl)Cl)ccc3Cl)ccc2[nH]1` (stereo not drawn) [c70], in data set [1], the “Test C: Bioassay” value is “A (80-100)”. The “Test B … percent mortality rating” value in data set [2] is “A (50-100)”. In data set [3], the “Test A: Bioassay on BAW, percent mortality rating” value is listed as “A (50-100)”.
Regarding `COC(=O)C(O)(c1ccc(NC(=O)c2cc(NC(=O)C3C(c4cc(Cl)cc(Cl)c4)C3(Cl)Cl)ccc2Cl)c(C)c1)C(F)(F)F` (stereo not drawn) [c71], the “Test C: Bioassay” value in data set [1] is listed as “A (80-100)”. The “Test B … percent mortality rating” value in data set [2] is on record as “A (50-100)”. For the same molecule, in data set [3], the “Test A: Bioassay on BAW, percent mortality rating” value was “A (50-100)”.
In the case of `C=C(c1ccc(NC(=O)c2cc(NC(=O)C3C(c4cc(Cl)cc(Cl)c4)C3(Cl)Cl)ccc2Cl)c(C)c1)C(F)(F)F` (stereo not drawn) [c72], the “Test C: Bioassay” value in data set [1] was “B (More than 0 - Less than 80)”. Further, the “Test B … percent mortality rating” value in data set [2] is “A (50-100)”. In addition, the “Test A: Bioassay on BAW, percent mortality rating” value in data set [3] is on record as “A (50-100)”.
Turning to `CCn1ccc2cc(NC(=O)c3cc(NC(=O)C4C(c5cc(Cl)cc(Cl)c5)C4(Cl)Cl)ccc3Cl)ccc21` (stereo not drawn) [c73], the “Test C: Bioassay” value in data set [1] is on record as “A (80-100)”. The “Test B … percent mortality rating” value in data set [2] was “A (50-100)”. Also, in data set [3], the “Test A: Bioassay on BAW, percent mortality rating” value is on record as “A (50-100)”.
As for `Cc1cc(NC(=O)OC(C)(C)C)ccc1NC(=O)c1cccc(NC(=O)C2C(c3cc(Cl)c(Cl)c(Cl)c3)C2(Cl)Cl)c1` (stereo not drawn) [c74], the “Test C: Bioassay” value in data set [1] is recorded as “B (More than 0 - Less than 80)”. Moreover, the “Test B … percent mortality rating” value in data set [2] is “A (50-100)”. The “Test A: Bioassay on BAW, percent mortality rating” value in data set [3] was “A (50-100)”.
Turning to `Cc1cc(NC(=O)OC(C)(C)C)ccc1NC(=O)c1cccc(NC(=O)C2C(c3cc(Cl)cc(Cl)c3)C2(Cl)Cl)c1` (stereo not drawn) [c75], the “Test C: Bioassay” value in data set [1] is “B (More than 0 - Less than 80)”. In data set [2], the “Test B … percent mortality rating” value was “A (50-100)”. In data set [3], the “Test A: Bioassay on BAW, percent mortality rating” value is on record as “A (50-100)”.
`Cc1cc(N)ccc1NC(=O)c1cccc(NC(=O)C2C(c3cc(Cl)c(Cl)c(Cl)c3)C2(Cl)Cl)c1` (stereo not drawn) [c76]: in data set [1], the “Test C: Bioassay” value is recorded as “A (80-100)”. Besides, in data set [2], the “Test B … percent mortality rating” value is on record as “A (50-100)”. Moreover, the “Test A: Bioassay on BAW, percent mortality rating” value in data set [3] is listed as “A (50-100)”.
Take `Cc1cc(N)ccc1NC(=O)c1cccc(NC(=O)C2C(c3ccc(Cl)c(Cl)c3)C2(Cl)Cl)c1` (stereo not drawn) [c77]: the “Test C: Bioassay” value in data set [1] was “A (80-100)”. For the same molecule, the “Test B … percent mortality rating” value in data set [2] was “A (50-100)”. Besides, the “Test A: Bioassay on BAW, percent mortality rating” value in data set [3] is given as “A (50-100)”.
On to `Cc1cc(N)ccc1NC(=O)c1cccc(NC(=O)C2C(c3cc(Cl)cc(Cl)c3)C2(Cl)Cl)c1` (stereo not drawn) [c78], for which the “Test C: Bioassay” value in data set [1] is on record as “A (80-100)”. Also, the “Test B … percent mortality rating” value in data set [2] is recorded as “A (50-100)”. The “Test A: Bioassay on BAW, percent mortality rating” value in data set [3] is “A (50-100)”.
As to `O=C(Nc1ccccc1)c1cc(NC(=O)C2C(c3cc(Cl)cc(Cl)c3)C2(Cl)Cl)cc(Cl)c1Cl` (stereo not drawn) [c79], the “Test C: Bioassay” value in data set [1] was “A (80-100)”. For the same molecule, the “Test B … percent mortality rating” value in data set [2] is “A (50-100)”. In addition, the “Test A: Bioassay on BAW, percent mortality rating” value in data set [3] is listed as “A (50-100)”.
Regarding `CNc1ccc(NC(=O)c2cc(NC(=O)C3C(c4cc(Cl)cc(Cl)c4)C3(Cl)Cl)cc(Cl)c2Cl)cc1` (stereo not drawn) [c80], in data set [1], the “Test C: Bioassay” value is reported as “A (80-100)”. Moreover, the “Test B … percent mortality rating” value in data set [2] was “A (50-100)”. The “Test A: Bioassay on BAW, percent mortality rating” value in data set [3] is recorded as “A (50-100)”.
For `Cc1cc(NC(=O)OC(C)(C)C)ccc1NC(=O)c1cc(NC(=O)C2C(c3cc(Cl)cc(Cl)c3)C2(Cl)Cl)ccc1Cl` (stereo not drawn) [c81], in data set [1], the “Test C: Bioassay” value is recorded as “A (80-100)”. The “Test B … percent mortality rating” value in data set [2] is recorded as “A (50-100)”. Moreover, in data set [3], the “Test A: Bioassay on BAW, percent mortality rating” value is given as “A (50-100)”.
